PMC11742723, “The clinical-stage drug BTZ-043 accumulates in murine tuberculosis lesions and efficiently acts against Mycobacterium tuberculosis” (Nature Communications, 2025)
Several values for one entry are separate records, joined by “and”; a condition that tells them apart may be missing. Identical values can stand only once. Like-named read-outs stand apart in the source and are kept apart here.

Assays:
Mtb H37Rv = experiment: BTZ-043 dose-fractionation study in Mtb-infected BALB/c mice (lung CFU); assay type: in vivo, Mycobacterium tuberculosis; conditions: for pulmonary CFU counts / mouse: 6 weeks of treatment, individual female mice
[1] = BALB/c, mouse, in vivo
[2] = IL-13tg, mouse, in vivo
Mtb = system: Mtb; parameters: method as in PMID 37791784, PMID 34370580; conditions: in vitro, ref PMID 37791784, PMID 34370580; cited from earlier work
[3] = MALDI imaging and penetration analysis in centrally necrotizing granulomas; conditions: for BTZ-043 distribution in granulomas by MALDI imaging: IL-13tg mice
[4] = Impact of γ-irradiation on BTZ-043 in lung cryosections of treated mice (LC-MS/MS, MALDI imaging)

SMILES: C[C@H]1COC2(CCN(c3nc(=O)c4cc(C(F)(F)F)cc([N+](=O)[O-])c4s3)CC2)O1 [BTZ-043]
- pulmonary CFU counts / mouse (Mtb H37Rv; 2.5 mg/kg BTZ-043 BID): 20001 CFU counts / mouse and 18001 CFU counts / mouse and 34001 CFU counts / mouse and 55001 CFU counts / mouse
- pulmonary CFU counts / mouse (Mtb H37Rv; 2.5 mg/kg BTZ-043 QD): 50001 CFU counts / mouse and 110001 CFU counts / mouse and 82501 CFU counts / mouse
- pulmonary CFU counts / mouse (Mtb H37Rv; 5 mg/kg BTZ-043 QD): 160001 CFU counts / mouse and 92501 CFU counts / mouse
- CFU reduction compared to the untreated control (Mtb H37Rv; BALB/c lungs, 250 mg/kg QD microcrystalline BTZ-043, 6 weeks): 3.7 log10 CFU
- effect of fractionation of the dose into two administrations (BID vs QD, identical total dose) (Mtb H37Rv; amorphous BTZ-043, 5 to 50 mg/kg/day, 6 weeks): modest, but consistent, trend towards increased mycobactericidal activity
- AUC at which BTZ-043total exposure reaches saturation [1]: ~30,000 h·ng/mL
- Cmax at which BTZ-043total exposure reaches saturation [1]: around 8000 ng/mL
- Tmax [1]: 30 to 60 min
- AUCinf ([1]; po, 2.5 mg/kg/day): 666 ng·h/mL
- Cmax ([1]; po, 2.5 mg/kg/day): 520 ng/mL
- Tmax ([1]; po, 2.5 mg/kg/day): 30 min
- AUCinf ([1]; po, 5 mg/kg/day): 1,360 h·ng/mL
- Cmax ([1]; po, 5 mg/kg/day): 1,050 ng/mL
- Tmax ([1]; po, 5 mg/kg/day): 30 min
- AUCinf ([1]; po, 50 mg/kg/day): 14,700 h·ng/mL
- Cmax ([1]; po, 50 mg/kg/day): 8070 ng/mL
- Tmax ([1]; po, 50 mg/kg/day): 30 min
- permeability classification (Caco-2 cell monolayers): permeable drug
- transport mechanism indicated by efflux ratios (Caco-2 cell monolayers): passive diffusion is dominant over active transport mechanisms
- penetration into the lesion by MALDI imaging [2]: penetration of BTZ-043 into the lesion was observed
- finding at necropsy (BTZ-043 treated mice, most pronounced at the highest dose for 8 weeks): enlarged stomachs
- health status of drug treated mice at high treatment doses (dose escalation study, BALB/c): did not observe any indication that could point to adverse side effects
- caseum activity assay result (Mtb): negative
- BTZ-043 distribution in granulomas by MALDI imaging ([3]; 0.5 h and 2 h after the last administration): higher intensity in the layer of foamy macrophages than in the surrounding tissue and a low intensity in the necrotic center
- BTZ-043 distribution in granulomas by MALDI imaging ([3]; 4 h after the last administration): evenly distributed across the granuloma, including a full penetration of the necrotic center
- BTZ-043 distribution in granulomas by MALDI imaging ([3]; 8 h post-dose): still detected in the cellular compartment and the necrotic center of the lesion
- BTZ-043 distribution in lung section by MALDI imaging ([3]; IL-13tg mouse, 2 h post-dose, 10 µm pixel size): higher abundance in the granuloma areas
- Mean intensity ([3]; Left Granuloma, Distance 5 μm): 139.49
- Mean intensity ([3]; Left Granuloma, Distance 15 μm): 156.7
- Mean intensity ([3]; Left Granuloma, Distance 25 μm): 198.34
- Mean intensity ([3]; Left Granuloma, Distance 455 μm): 231.69
- Mean intensity ([3]; Left Granuloma, Distance 465 μm): 177.77
- Mean intensity ([3]; Left Granuloma, Distance 475 μm): 149.66
- Mean intensity ([3]; Left Granuloma, Distance 485 μm): 141.47
- Mean intensity ([3]; Left Granuloma, Distance 495 μm): 108.37
- Mean intensity ([3]; Left Granuloma, Distance -5 μm): 119.73
- Mean intensity ([3]; Left Granuloma, Distance -15 μm): 101.17
- Mean intensity ([3]; Left Granuloma, Distance -25 μm): 94.994
- Mean intensity ([3]; Left Granuloma, Distance -35 μm): 92.517
- Mean intensity ([3]; Left Granuloma, Distance -45 μm): 79.172
- Mean intensity ([3]; Left Granuloma, Distance -55 μm): 80.027
- Mean intensity ([3]; Left Granuloma, Distance -65 μm): 75.696
- Mean intensity ([3]; Left Granuloma, Distance -75 μm): 68.605
- Mean intensity ([3]; Left Granuloma, Distance -85 μm): 57.747
- Mean intensity ([3]; Left Granuloma, Distance -95 μm): 55.134
- Mean intensity ([3]; Left Granuloma, Distance -105 μm): 53.791
- Mean intensity ([3]; Left Granuloma, Distance -115 μm): 50.259
- Mean intensity ([3]; Left Granuloma, Distance -125 μm): 46.467
- Mean intensity ([3]; Left Granuloma, Distance -135 μm): 47.503
- Mean intensity ([3]; Left Granuloma, Distance -145 μm): 45.623
- Mean intensity ([3]; Left Granuloma, Distance -155 μm): 45.907
- Mean intensity ([3]; Left Granuloma, Distance -165 μm): 44.835
- Mean intensity ([3]; Left Granuloma, Distance -175 μm): 48.409
- Mean intensity ([3]; Left Granuloma, Distance -185 μm): 51.437
- Mean intensity ([3]; Left Granuloma, Distance -195 μm): 54.977
- Mean intensity ([3]; Left Granuloma, Distance -205 μm): 58.044
- Mean intensity ([3]; Left Granuloma, Distance -215 μm): 59.813
- Mean intensity ([3]; Left Granuloma, Distance -225 μm): 62.899
- Mean intensity ([3]; Left Granuloma, Distance -235 μm): 60.823
- Mean intensity ([3]; Left Granuloma, Distance -245 μm): 67.44
- Mean intensity ([3]; Left Granuloma, Distance -255 μm): 69.7
- Mean intensity ([3]; Left Granuloma, Distance -265 μm): 69.289
- Mean intensity ([3]; Left Granuloma, Distance -275 μm): 70.893
- Mean intensity ([3]; Left Granuloma, Distance -285 μm): 72.505
- Mean intensity ([3]; Left Granuloma, Distance -295 μm): 79.349
- Mean intensity ([3]; Left Granuloma, Distance -305 μm): 78.856
- Mean intensity ([3]; Left Granuloma, Distance -315 μm): 77.402
- Mean intensity ([3]; Left Granuloma, Distance -325 μm): 81.899
- Mean intensity ([3]; Left Granuloma, Distance -335 μm): 87.061
- Mean intensity ([3]; Left Granuloma, Distance -345 μm): 86.34
- Mean intensity ([3]; Left Granuloma, Distance -355 μm): 78.295
- Mean intensity ([3]; Left Granuloma, Distance -365 μm): 77.954
- Mean intensity ([3]; Left Granuloma, Distance -375 μm): 75.379
- Mean intensity ([3]; Left Granuloma, Distance -385 μm): 74.434
- Mean intensity ([3]; Left Granuloma, Distance -395 μm): 71.834
- Mean intensity ([3]; Left Granuloma, Distance -405 μm): 68.248
- Mean intensity ([3]; Left Granuloma, Distance -415 μm): 72.627
- Mean intensity ([3]; Left Granuloma, Distance -425 μm): 59.053
- Mean intensity ([3]; Left Granuloma, Distance -435 μm): 63.125
- Mean intensity ([3]; Left Granuloma, Distance -445 μm): 62.385
- Mean intensity ([3]; Right Granuloma, Distance 5 μm): 197.71
- Mean intensity ([3]; Right Granuloma, Distance 15 μm): 215.58
- Mean intensity ([3]; Right Granuloma, Distance -5 μm): 125.01
- Mean intensity ([3]; Right Granuloma, Distance -15 μm): 127.96
- Mean intensity ([3]; Right Granuloma, Distance -25 μm): 106.25
- Mean intensity ([3]; Right Granuloma, Distance -35 μm): 89.663
- Mean intensity ([3]; Right Granuloma, Distance -45 μm): 81.533
- Mean intensity ([3]; Right Granuloma, Distance -55 μm): 68.214
- Mean intensity ([3]; Right Granuloma, Distance -65 μm): 66.172
- Mean intensity ([3]; Right Granuloma, Distance -75 μm): 61.043
- Mean intensity ([3]; Right Granuloma, Distance -85 μm): 54.281
- Mean intensity ([3]; Right Granuloma, Distance -95 μm): 56.521
- Mean intensity ([3]; Right Granuloma, Distance -105 μm): 53.591
- Mean intensity ([3]; Right Granuloma, Distance -115 μm): 52.38
- Mean intensity ([3]; Right Granuloma, Distance -125 μm): 54.234
- Mean intensity ([3]; Right Granuloma, Distance -135 μm): 48.899
- Mean intensity ([3]; Right Granuloma, Distance -145 μm): 60.041
- Mean intensity ([3]; Right Granuloma, Distance -155 μm): 59.51
- Mean intensity ([3]; Right Granuloma, Distance -165 μm): 58.931
- Mean intensity ([3]; Right Granuloma, Distance -175 μm): 63.443
- Mean intensity ([3]; Right Granuloma, Distance -185 μm): 66.482
- Mean intensity ([3]; Right Granuloma, Distance -195 μm): 69.634
- Mean intensity ([3]; Right Granuloma, Distance -205 μm): 66.172
- Mean intensity ([3]; Right Granuloma, Distance -215 μm): 74.546
- Mean intensity ([3]; Right Granuloma, Distance -225 μm): 72.092
- Mean intensity ([3]; Right Granuloma, Distance -235 μm): 66.755
- Mean intensity ([3]; Right Granuloma, Distance -245 μm): 74.961
- Mean intensity ([3]; Right Granuloma, Distance -255 μm): 64.422
- Mean intensity ([3]; Right Granuloma, Distance -265 μm): 67.123
- Mean intensity ([3]; Right Granuloma, Distance -275 μm): 62.093
- Mean intensity ([3]; Right Granuloma, Distance -285 μm): 63.383
- Mean intensity ([3]; Right Granuloma, Distance -295 μm): 60.578
- Mean intensity ([3]; Right Granuloma, Distance -305 μm): 57.529
- Mean intensity ([3]; Right Granuloma, Distance -315 μm): 54.535
- Mean intensity ([3]; Right Granuloma, Distance -325 μm): 51.043
- Mean intensity ([3]; Right Granuloma, Distance -335 μm): 51.438
- Mean intensity ([3]; Right Granuloma, Distance -345 μm): 52.76
- Mean intensity ([3]; Right Granuloma, Distance -355 μm): 52.538
- Mean intensity ([3]; Right Granuloma, Distance -365 μm): 48.918
- Mean intensity ([3]; Right Granuloma, Distance -375 μm): 51.113
- Mean intensity ([3]; Right Granuloma, Distance -385 μm): 46.016
- Mean intensity ([3]; Right Granuloma, Distance -395 μm): 55.943
- Mean intensity ([3]; Right Granuloma, Distance -405 μm): 55.946
- Mean intensity ([3]; Right Granuloma, Distance -415 μm): 56.244
- Mean intensity ([3]; Right Granuloma, Distance -425 μm): 54.068
- Mean intensity ([3]; Right Granuloma, Distance -435 μm): 59.943
- Mean intensity ([3]; Right Granuloma, Distance -445 μm): 57.116
- concentration at 1 h ([4]; BALB/c, mouse, 250 mg/kg/day, ng/mg lung cryosection, measurement 2, no gamma irradiation, 1h after BTZ administration, naïve BALB/c 250 mg/kg/day 5 days, single cryosection): 1400 ng/g
- ng/mg lung cryosection, Mean ([4]; gamma irradiation, 1h after BTZ administration, naïve BALB/c 250 mg/kg/day 5 days, single cryosection): 13.81 ng/mg lung cryosection
- impact of γ-irradiation on the concentration and distribution of BTZ-043 ([4]; lung tissue cryosections, 5.85 kGy): does not impact
